# Measurements as given in PubChem BioAssay (NCI).
#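 Tested at 5 concentrations; 48 h exposure; 96-well plates; endpoints linearly interpolated, else capped at highest concentration. TGI is the concentration that stops growth completely.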
# Experiments:
# Experiment in all cases: NCI anticancer screen, dose series, 48 h
# HCT-15 colon = system: HCT-15 colon
# KM12 colon = system: KM12 colon
# MDA-MB-435 = system: MDA-MB-435
# SF-295 CNS = system: SF-295 CNS
# SK-MEL-5 melanoma = system: SK-MEL-5 melanoma
# HL-60(TB) leukemia = system: HL-60(TB) leukemia
# MDA-MB-231 breast = system: MDA-MB-231 breast
# A549 NSCLC = system: A549 NSCLC
# 786-0 renal = system: 786-0 renal
# HCC-2998 colon = system: HCC-2998 colon
SMILES,TGI (HCT-15 colon),TGI (KM12 colon),TGI (MDA-MB-435),TGI (SF-295 CNS),TGI (SK-MEL-5 melanoma),TGI (HL-60(TB) leukemia),TGI (MDA-MB-231 breast),TGI (A549 NSCLC),TGI (786-0 renal),TGI (HCC-2998 colon)
CCNC(=O)NNc1ncnc2c1c(-c1ccc(Cl)cc1)cn2-c1ccc(C)cc1,47.8 µM,35 µM,30.7 µM,30.5 µM,28 µM,34.7 µM,34.8 µM,37.2 µM,32.8 µM,31.3 µM
COC1=CC(=O)c2c(cc(COP(N)(=O)N(CCCl)CCCl)n2C)C1=O (stereo not given),3.54 µM,5.02 µM,3.2 µM,2.82 µM,2.82 µM,3.89 µM,8.42 µM,4.31 µM,10.9 µM,2.3 µM
N/C(=N\NC(=O)c1nc2ccccc2s1)c1ccccn1,31.9 µM,> 100 µM,> 37.6 µM,> 100 µM,21.3 µM,23.4 µM,> 100 µM,> 52.7 µM,22.9 µM,> 61.5 µM
COc1cc(NS(C)(=O)=O)ccc1NCc1cnc2ccc3[nH]cccc3c12,58.4 µM,37.6 µM,43.8 µM,53.4 µM,25.2 µM,18.3 µM,51 µM,> 96.3 µM,54 µM,35.4 µM
CC(=O)OC12CC(C(F)(F)F)(C(F)(F)F)OC1(OC(C)=O)CC(C(F)(F)F)(C(F)(F)F)O2 (stereo not given),> 100 µM,11.5 µM,> 100 µM,> 100 µM,5.81 µM,11.3 µM,53.2 µM,5.6 µM,12.4 µM,> 100 µM
